Experimental data published in paper PMC6268492, “Synthesis and Antiangiogenic Activity of Novel Gambogic Acid Derivatives” (Molecules, 2012).
Read-outs that look alike come from different tables or passages of the source.

Key:
[1] = tested on: transgenic fli-1: enhanced GFP zebrafish embryos; assay: Zebrafish embryo assay: antiangiogenic effects; type: in vivo, zebrafish (Danio rerio); conditions: Danio rerio, zebrafish embryos
zebrafish embryos = assay: Zebrafish toxicity: heart rates; type: in vivo; conditions: for Heart rates of zebrafish: control 117 beats/min
Method: To investigate the toxicity of these four compounds, the heart rates and the mortality rates of zebrafish embryos were recorded (Table 2 and Table 3). The heart rate of zebrafish in the control group was 117 beats/min.
Using transgenic fli-1: enhanced GFP zebrafish embryos, we investigated the effects of all compounds on angiogenesis. Zebrafish embryos were generated by natural pairwise mating and raised at 28.5 °C in embryo water (0.2 g/L of Instant Ocean Salt in distilled water). At about 6 h post fertilization (hpf), the embryos were sorted in the 6-well plate (six embryos/well), removing dead and unhealthy embryos. Then the embryos were treated with the indicated concentrations of compounds which were added into embryo water. After incubation for 24 or 48 h, the embryos were anesthetized using 0.05% 2-phenoxyethanol in embryo water, quantified and photographed.

HUVECs = assay: Wound-healing migration assay; type: cell-based, Human; conditions: 1 μM, 24 h, control = 100%
Description: The migration of ECs is an important step of angiogenesis. The continuity of vascular ECs is the most important factor in preserving vessel wall function. Migration of ECs is essential to the recovery of this continuity after vascular ECs injury. […] As illustrated in Figure 3(I), the HUVECs migrated into the wound area actively (between the two white dash lines) under the compound-free condition (control).
Figure 3 Effects on the HUVECs migration. (I) HUVECs suspended in serum-free Dulbecco’s Modified Eagle Medium (DMEM) containing compounds (0.25 or 0.5 or 1 μM) for 24 h were photographed under a phase contrast microscopy (Olympus CKX41, magnification: 50×). Control was treated with serum-free DMEM which was consided as resulting in 100%; (II) Migration rates of compounds on the HUVECs. Data represented the mean standard deviation (SD) from three independent experiments. *** p < 0.005compared with control.
HUVECs were seeded in 6-well plates precoated with 0.1% gelatin, and grown overnight to confluence. The monolayer cells were wounded by scratching with 10 μL pipet tips and washed twice with serum-free DMEM (Dulbecco’s modified eagle medium) to remove the nonadherent cells and then replaced by serum-free DMEM with the indicated concentrations of compounds for 24 h. Images were taken at 0 h and 24 h independently after incubation at 37 °C, 5% CO2 environment. The migrated HUVECs were manually counted. The values were observed from four randomly selected fields.

A549 = assay: MTT assay, cell proliferation; type: cell-based; conditions: Homo sapiens, 24 h, read-out: IC50, inhibition of cell proliferation
In short: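 Absorbance at 570 nm of DMSO-dissolved formazan was expressed as percentage growth relative to untreated cells, and IC50 was taken as the concentration giving 50% inhibition. Seeding was 5 × 10^3 cells per well, with 24 h compound treatment followed by 3 h MTT.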

HCT116 = assay: MTT assay, cell proliferation; type: cell-based; conditions: Homo sapiens, HCT-116, 24 h, read-out: IC50, inhibition of cell proliferation
In short: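 Viability after a 24 h compound exposure (5 × 10^3 cells/well, 37 °C) was measured by MTT reduction over 3 h with a 570 nm read-out. IC50 values are concentrations that halve proliferation relative to untreated control.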

HeLa = assay: MTT assay, cell proliferation; type: cell-based; conditions: Homo sapiens, 24 h, read-out: IC50, inhibition of cell proliferation
In short: (§1)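 Cells (5 × 10^3/well) exposed to compound for 24 h at 37 °C, 5% CO2; HepG2, HeLa, LO2 in DMEM and K562 in RPMI 1640, each with 10% FBS. MTT added for 3 h, formazan dissolved in DMSO, absorbance at 570 nm. IC50 = concentration giving 50% inhibition of proliferation versus untreated control.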

HepG2 = assay: MTT assay, cell proliferation; type: cell-based; conditions: Homo sapiens, 24 h, read-out: IC50, inhibition of cell proliferation
In short: as §1

K562 = assay: MTT assay, cell proliferation; type: cell-based; conditions: Homo sapiens, 24 h, read-out: IC50, inhibition of cell proliferation
In short: as §1

LO2 = assay: MTT assay, cytotoxicity; type: cell-based; conditions: Homo sapiens, L02, 24 h, read-out: IC50, inhibition of cell proliferation
In short: as §1

SMILES: CC(=O)Nc1ccc(NC(=O)/C(C)=C\CC23OC(C)(C)C4CC(C=C5C(=O)c6c(O)c7c(c(CC8OC8(C)C)c6OC542)OC(C)(CCC2OC2(C)C)C=C7)C3=O)cc1 (centres unmarked) [Compound 36, (32,33),(37,38)-Diepoxy-N-(4-acetamidophenyl) gambogamide]
- inhibition in vivo at 1 µM ([1]; read-out: antiangiogenic rates): 25 to 50%
- inhibition in vivo at 1 µM ([1]; vs vehicle (0.05% DMSO), read-out: Anti-angiogenic phenotype): 25 to 50%
- inhibition in vivo at 2.5 µM ([1]; 2.5 μM, vs vehicle (0.05% DMSO), read-out: Anti-angiogenic phenotype): 50 to 75%
- inhibition in vivo at 10 µM ([1]; 10 μM, vs vehicle (0.05% DMSO), read-out: Anti-angiogenic phenotype): > 75%
- heart rates relative to control group (zebrafish embryos; 2.5 µM and 10 µM, zebrafish): about half of the control group
- Heart rates of zebrafish (zebrafish embryos; 2.5 μM): 60 ± 5.2 beats/min
- Heart rates of zebrafish (zebrafish embryos; 10 μM): 60 ± 2.86 beats/min
- migratory rates (HUVECs): 1.7%
- IC50 (A549): 1290 ± 140 nM
- IC50 (HCT116): 560 ± 10 nM
- IC50 (HeLa): 4960 ± 880 nM
- IC50 (HepG2): 1850 ± 80 nM
- IC50 (K562): 280 ± 30 nM
- IC50 (LO2): 1620 ± 80 nM
